Values belong to the compound of their own block, whether it stands above or below them.
Key:
Pest worms = assay: Control of pest worms on tomato by Cypermethrin 25% EC in well water treated with the composition; format: in vivo; conditions: Cypermethrin 125 ml/acre with composition, control: 150 ml/acre in normal well water
Protocol: The following compositions are used in the treatment for Tomato:
(§1) Tomato crop infested with worms was sprayed with Cypermethrin 25% EC using normal well water and well water treated with the compositions of the invention. 4000 Sq. meter was treated only with water and another 8000 square meter plot was treated with composition of the invention as per Example No. 3 or 5. In both the plots, pest is controlled. In treated plot, the pest control is achieved at 95% and with 15% saving in the dosage of cypermethrin pesticide.

[1] = pH and color of cypermethrin spray water treated with the composition; format: physicochemical; conditions: composition 2 Ltr per 8000 sq. meter; control: normal well water
Protocol: as §1

[2] = Urea volatilization: loss of soil-applied urea, from nitrogen content of soil samples; conditions: 50 Kg urea in soil; 1 ltr of composition where used
Protocol: Experiment was carried out to check the effect of compositions of present invention to see the efficiency to prevent volatilization in urea.
It is noted that the pH of urea in soil in treatment T2 and T3 was adjusted to 4.5 to 5.0 due to addition of composition of invention.
The soil samples were collected from various selected locations wherever urea is applied and then checked for nitrogen content in laboratory after 0, 2, 4, 6, 8 and 10 days of urea application.

[3] = pH and color of glyphosate spray water treated with the composition; format: physicochemical; conditions: water treated with composition at 2 to 3 ml per ltr; control: plain water
Protocol: (§2) The water was treated with composition of example 3 and 5 as given in Table 15 at 2 to 3 ml per ltr of water till the pH of 4.5 and 4.2 is achieved as indicated by the color achieved to the water.

weeds = assay: Control of weeds in cotton crop by glyphosate spray in water treated with the composition; format: in vivo; conditions: Glyfosate 750 ml/acre with composition, control: 1 Ltr/acre with plain water
Protocol: The cotton crop was treated with glyphosate at 1 Ltr per acre with plain water and Glyfosate used with the composition of Example 3 and 5 was used at 750 ml/acre.
as §2

SMILES: CC1(C)C(C=C(Cl)Cl)C1C(=O)OC(C#N)c1cccc(Oc2ccccc2)c1 (centres unmarked) [Cypermethrin]
Control of Pest worms (Pest worms): 78%
pH of Cypermethrin Spray solution [1]: 7.20

pH achieved of urea in soil [2]: pH = 7.5
SMILES: NC(N)=O [Plain Urea, Urea]

SMILES: O=C(O)CNCP(=O)(O)O [Glyfosate, glyphosate]
pH of Glyfosate spray solution [3]: 7.65
Control of weeds (weeds): 72%

Reference: patent US10259753B2, “Multifunctional organic agricultural fertilizer composition and process for preparation thereof” (priority 2014, dated 2019)
